Results as given in the CheMixHub viscosity set.
± gives the uncertainty stated by the source.

Assay: xn = mol fraction of the nth substance listed

O=C1CCCCC1 + CCCCCO
303.15 K, 101 kPa
Conditions	viscosity [mPa·s]
x1 = 0.1012	2.388 ± 0.022
x1 = 0.2586	1.983 ± 0.018
x1 = 0.4201	1.737 ± 0.016
x1 = 0.5809	1.622 ± 0.015
x1 = 0.7407	1.565 ± 0.014

CC=Cc1ccc2c(c1)OCO2 + CCCCCOC(C)=O
Conditions	viscosity [mPa·s]
298.15 K, 101 kPa, x1 = 0.137	0.958 ± 0.012

CC(=O)CC(C)C + CCCCN(CCCC)CCCC
viscosity [mPa·s], 101 kPa
Conditions	298.15 K	303.15 K	308.15 K
x2 = 0.0501	0.564 ± 0.017	0.53 ± 0.017	0.499 ± 0.017
x2 = 0.1	0.593 ± 0.017	0.556 ± 0.017	0.524 ± 0.017
x2 = 0.1499	0.622 ± 0.017	0.582 ± 0.017	0.549 ± 0.017
x2 = 0.2004	0.653 ± 0.017	0.609 ± 0.017	0.576 ± 0.017
x2 = 0.25	0.685 ± 0.017	0.638 ± 0.017	0.601 ± 0.017
x2 = 0.3017	0.719 ± 0.017	0.668 ± 0.017	0.628 ± 0.017
x2 = 0.4004	0.786 ± 0.017	0.727 ± 0.017	0.681 ± 0.017
x2 = 0.4999	0.856 ± 0.017	0.788 ± 0.017	0.737 ± 0.017
x2 = 0.6004	0.928 ± 0.017	0.855 ± 0.017	0.796 ± 0.017
x2 = 0.6962	1.002 ± 0.018	0.922 ± 0.017	0.855 ± 0.017
x2 = 0.8004	1.087 ± 0.018	0.998 ± 0.018	0.922 ± 0.017
x2 = 0.8496	1.129 ± 0.018	1.033 ± 0.018	0.954 ± 0.018
x2 = 0.8997	1.171 ± 0.018	1.07 ± 0.018	0.988 ± 0.018
x2 = 0.9499	1.22 ± 0.018	1.114 ± 0.018	1.023 ± 0.018

CC(=O)CC(C)C + CCCCO
101 kPa
Conditions	viscosity [mPa·s]
303.15 K, x2 = 0.1311	0.542 ± 0.1
303.15 K, x2 = 0.2531	0.592 ± 0.1
303.15 K, x2 = 0.367	0.653 ± 0.1
303.15 K, x2 = 0.4745	0.748 ± 0.1
303.15 K, x2 = 0.5795	0.862 ± 0.1
303.15 K, x2 = 0.6729	0.997 ± 0.1
303.15 K, x2 = 0.7627	1.185 ± 0.1
303.15 K, x2 = 0.8465	1.42 ± 0.11
303.15 K, x2 = 0.9254	1.728 ± 0.11
313.15 K, x2 = 0.1311	0.482 ± 0.1
313.15 K, x2 = 0.2533	0.526 ± 0.1
313.15 K, x2 = 0.3677	0.578 ± 0.1
313.15 K, x2 = 0.4745	0.647 ± 0.1
313.15 K, x2 = 0.5754	0.733 ± 0.1
313.15 K, x2 = 0.6704	0.844 ± 0.1
313.15 K, x2 = 0.7604	0.98 ± 0.1
313.15 K, x2 = 0.9236	1.43 ± 0.11
323.15 K, x2 = 0.1319	0.428 ± 0.1
323.15 K, x2 = 0.2542	0.464 ± 0.1
323.15 K, x2 = 0.3688	0.507 ± 0.1
323.15 K, x2 = 0.4759	0.565 ± 0.1
323.15 K, x2 = 0.5759	0.621 ± 0.1
323.15 K, x2 = 0.6721	0.707 ± 0.1
323.15 K, x2 = 0.7597	0.801 ± 0.1
323.15 K, x2 = 0.8452	0.937 ± 0.1
323.15 K, x2 = 0.9386	1.136 ± 0.1

CCCCCCO + CCCCO
Conditions	viscosity [mPa·s]
294.55 K, 100 kPa, x2 = 0.31	3.994

CCOCC + CCCCO
303.16 K, 101 kPa
Conditions	viscosity [mPa·s]
x1 = 0.09	1.958 ± 0.47
x1 = 0.17	1.512 ± 0.37
x1 = 0.27	0.9582 ± 0.25
x1 = 0.4	0.8084 ± 0.21
x1 = 0.51	0.6978 ± 0.19
x1 = 0.6	0.5936 ± 0.16
x1 = 0.67	0.4746 ± 0.14
x1 = 0.74	0.3798 ± 0.12
x1 = 0.81	0.291 ± 0.097

O=C1CCCCC1 + CCCCO
101 kPa
Conditions	viscosity [mPa·s]
298.15 K, x1 = 0.0997	2.13 ± 0.03
298.15 K, x1 = 0.2002	1.87 ± 0.02
298.15 K, x1 = 0.3022	1.73 ± 0.02
298.15 K, x1 = 0.3878	1.66 ± 0.02
298.15 K, x1 = 0.5036	1.63 ± 0.02
298.15 K, x1 = 0.6016	1.64 ± 0.02
298.15 K, x1 = 0.6966	1.67 ± 0.02
298.15 K, x1 = 0.7992	1.74 ± 0.02
298.15 K, x1 = 0.8984	1.82 ± 0.02
303.15 K, x1 = 0.1001	1.855 ± 0.014
303.15 K, x1 = 0.2591	1.662 ± 0.013
303.15 K, x1 = 0.4202	1.556 ± 0.012
303.15 K, x1 = 0.5804	1.517 ± 0.013
303.15 K, x1 = 0.7265	1.534 ± 0.013
303.15 K, x1 = 0.8935	1.622 ± 0.014
